Measured values reported in patent publication EP2258370A1, “Treatment of malignant diseases” (Medizinische Universität Wien, priority 2009, dated 2010).

Key:
[1] = tested on: CRL 2505 (prostate carcinoma); test: Cell proliferation assay (WST-1); assay type: cell-based; settings: 25 and 50 µM, 24 h, 48 h and 72 h, WST-1, Figs. 2a-f
Method: (§1) Rac-1 inhibitor compounds were tested in cell proliferation assays performed with following cancer cell lines: MCF7 (mammary carcinoma), SW620 (colon carcinoma), CRL 2505 (prostate carcinoma). The level of proliferation was measured at 24 hours (h), 48 h and 72 h after in vitro induction of compounds. Two different concentrations of compounds were tested for each cell line (25 and 50 µM, see Figs. 2a-f; the asteriks indicates significant change versus control group (no compound induction) at all incubation points (p<0.02)).
(§2) The proliferation assay was performed with Cell Proliferation Reagent WST-1 (Roche Cat. No. 1644 807). The cells were cultured 2 x 10^4 cells/well in microplates (96 wells, flat bottom). The Cell Proliferation Reagent WST-1 (10 µl/well) was added to each experimental group (Figs. 2a-f). After 4 hours of incubation (37°C) the absorbance was measured by Microplate (ELISA) reader at 450 nm optical density (OD). The reference wavelength was 620 nm.
(§3) All experimental compounds (compounds 1, 2, 3-10, 18, 53) were solved in 1% DMSO solution. Therefore, additional experimental group (1% DMSO) was used to examine proliferation activity of used cell lines in presence of 1% DMSO.
(§4) All measurements were corrected to the blank absorbance (medium with 10 µl Cell Proliferation Reagent WST-1, no cells).

MCF7 (mammary carcinoma) = test: Cell proliferation assay (WST-1); assay type: cell-based; settings: 25 and 50 µM, 24 h, 48 h and 72 h, WST-1, Figs. 2a-f
Method: as §1, §2, §3, §4

SW620 (colon carcinoma) = test: Cell proliferation assay (WST-1); assay type: cell-based; settings: 25 and 50 µM, 24 h, 48 h and 72 h, WST-1, Figs. 2a-f
Method: as §1, §2, §3, §4

SW620 cells = test: SW620 human colon cancer xenograft in athymic nude mice; settings: 100µg/day for 2 weeks, intraperitoneal osmotic minipump from day 8, day 22; for mean tumour weight: control 793; for Mean tumour weight (±SD): control 793 ± 328 mg
Method: 8 x 10^6 SW620 cells/100µl PBS were injected subcutaneously into the left flank. […] Control mice received osmotic pumps filled with Ringer's solution. All mice were sacrificed on day 22 and tumour weights were then determined.

MCF-7 cells = test: MCF-7 human breast cancer xenograft in athymic nude mice; assay type: in vivo; settings: intraperitoneal osmotic minipump from day 24, day 38, control 210 ± 31 mg
Method: On the indicated days, tumour sizes were determined with a caliper and tumour volumes calculated according to the following formula: tumour volume = [(length x width^2) x […]].
All mice were sacrificed on day 38 and tumour weights were then determined.

PC-3 = settings: Rac-hyperactive prostate cancer cells; cited from earlier work

CCN(CC)CCCC(C)Nc1nc(C)cc(NCCc2c[nH]c3ccccc23)n1 (stereo not shown) [Compound 1, N2-(4-Diethylamino-1-methyl-butyl)-N4-[2-(1H-indol-3-yl)-ethyl]-6-methyl-pyrimidine-2,4-diamine]
inhibiting proliferation of the tumour cells [1]: effective in inhibiting proliferation | inhibiting proliferation of the tumour cells (MCF7 (mammary carcinoma)): effective in inhibiting proliferation | inhibiting proliferation of the tumour cells (SW620 (colon carcinoma)): effective in inhibiting proliferation | Mean tumour weight (% of control (co)) (SW620 cells): 74 % of control (co) | mean tumour weight (SW620 cells): 583 mg | Mean tumour weight (±SD) (SW620 cells): 583 ± 151 mg

CCN(CC)CCCC(C)Nc1nc(C)cc(NCCc2c[nH]c3ccc(O)cc23)n1 (racemic) [Compound 2, 3-{2-[2-(4-Diethylamino-1-methyl-butylamino)-6-methyl-pyrimidin-4-ylamino]-ethyl}-1H-indol-5-ol]
inhibiting proliferation of the tumour cells [1]: effective in inhibiting proliferation | inhibiting proliferation of the tumour cells (MCF7 (mammary carcinoma)): effective in inhibiting proliferation | inhibiting proliferation of the tumour cells (SW620 (colon carcinoma)): effective in inhibiting proliferation | mean tumour weight (MCF-7 cells; 25µg per day): 185 ± 54 mg | mean tumour weight (MCF-7 cells; 50µg per day): 152 ± 70 mg | mean tumour weight (MCF-7 cells; 100µg per day): 118 ± 60 mg | Mean tumour weight (% of control (co)) (SW620 cells): 77 % of control (co) | mean tumour weight (SW620 cells): 612 mg | Mean tumour weight (±SD) (SW620 cells): 612 mg

CCN(CC)CCCC(C)Nc1nc(C)cc(Nc2ccc3nc(C)cc(N)c3c2)n1 (racemic) [NSC23766, N6-(2-((4-(diethylamino)-1-methylbutyl)amino)-6-methyl-4-pyrimidinyl)-2-methyl-4,6-quinolinediamine, reference compound]
proliferation, anchorage independent growth, and invasion (PC-3): able to inhibit proliferation, anchorage independent growth, and invasion | Mean tumour weight (% of control (co)) (SW620 cells): 107 % of control (co) | mean tumour weight (SW620 cells): 846 mg | Mean tumour weight (±SD) (SW620 cells): 846 ± 256 mg
